Data taken from US5994336A, “Method of inhibiting proliferation of cells by administering an aminosterol compound” (priority 1995, dated 1999).

Experiments:
rabbit NHE3 = biological target: T1, rabbit NHE3 (Oryctolagus cuniculus, UniProt P26432); type: cell-based
T1 construct: BCECF internal pH recovery

[1] = system: bovine pulmonary endothelial cells; test: Growth inhibition in vitro (absorbance at 600 nm); type: cell-based; conditions: 1 μg/ml; FIG. 3A
[2] = system: human epithelial cell line MCF 10A; test: Growth inhibition in vitro (absorbance at 600 nm); type: cell-based; conditions: 10 μg/ml; FIG. 3B
[3] = system: human foreskin fibroblasts; test: Growth inhibition in vitro (absorbance at 600 nm); type: cell-based; conditions: 10 μg/ml; FIG. 3C
[4] = system: human microvascular cells; test: Inhibition of endothelial cell cord formation in vitro; type: cell-based; conditions: words
Source text: Endothelial cells have the capacity in vitro to form tubular aggregates resembling capillaries in various early stages of formation. This conversion occurs under relatively specific conditions, in which essential growth factors along with an effective substratum are provided. It has been shown that both the interaction of growth factors with the endothelial cell and its attachment to a substratum activate the NHE. The activation of this exchanger is believed to be required for subsequent morphologic transformation of the endothelial cell into a multicellular tubular structure.
To assess the effect of compounds on the cord-like structures formed by human microvascular cells when plated in the presence of VEGF (Vascular Endothelial Growth Factor) and basic fibroblast growth factor on a collagen matrix, a standard cord formation assay was used.

[5] = system: capillaries of the chorioallantoic membrane; test: Inhibition of capillary growth in chorioallantoic membrane (CAM) model; type: in vivo, chick
Source text: The growing capillaries within the chorioallantoic membrane model (CAM model) have been used as a system in which to evaluate the effect of agents on their potential to inhibit new vessel growth. Neovascularization occurs most aggressively over the first week of embryonic development. Thereafter capillary growth is characterized by principally "elongation" rather than "de novo" formation.
In the standard assay, agents are applied locally to a region of the embryo over which neovascularization will occur. Agents are assessed by their ability to inhibit this process, as evaluated by visual examination about 7 days after application. […] The assay utilized is described in detail in Auerbach et al., Pharm. Ther. 51, 1991, 1-11.

vitelline capillaries = test: Chick embryo vitelline capillary regression assay; type: in vivo; design: key to vascular reactivity: +: Vascular reactivity; 0: No vascular reactivity; +/-: Equivocal reactivity; conditions: for vascular reactivity: 60 minutes
Protocol: Using the chick embryo vitelline capillaries assay, compounds were tested for their ability to induce capillary regression. Each compound was applied in 0.1 ml of 15% Ficol 400 and PBS onto the embryo, and vascular regression was assessed after 60 minutes.
The 3-day chick embryo consists of an embryonic disc from which numerous vessels emerge and return, forming a "FIG. 8"-shaped structure--the embryo in the center with vascular loops extending outward over both poles. […] Following a lag period of around 15 minutes, the constriction of continuity between capillary and secondary vessels, generally on the "venous" side, was observed. Continued pulsatile blood flow progressed, resulting in a "swelling" of the blind tube, followed by a pinching off of the remaining connection and formation of an enclosed vascular sac resembling a "blood island." This process progressed until only the largest vessels remained intact.

human melanoma 1205Lu = test: Suppression of growth of human melanoma in RAG-1 mice; type: in vivo
Source text: As apparent from FIG. 5, melanoma 1205Lu develops aggressively in RAG-1 mice after implantation.

B16 = test: Cytostatic activity against B16 in culture; type: cell-based, murine; conditions: except at very high concentrations
[6] = system: VX2 carcinoma-induced corneal neovascularization; test: Suppression of tumor-induced corneal neovascularization in rabbits; type: in vivo, rabbit; conditions: ELVAX 40 P pellet, day 21
Source text: The implantation of VX2 carcinoma into the rabbit cornea results in the induction of new blood vessels within several days (Tamargo et al., Cancer Research 51, 1991, 672-675). It is believed that this carcinoma secretes growth factors that stimulate new blood-vessel growth. Thus, this model is indicative in vivo evidence of therapeutic utility in the treatment of pathological disorders of vascularization, including the metastatic spread of tumors, diabetic retinopathy, macular degeneration, and rheumatoid arthritis.
This experiment followed the published protocol--tumor was implanted adjacent to a polymer containing a concentration of the agent to be evaluated. The polymer releases the agent slowly in the immediate neighborhood of the tumor, providing sustained high local concentrations of the agent. In this experiment, squalamine introduced into a pellet of ELVAX 40 P (DuPont, Wilmington, Del.) inhibited new blood vessel formation by about 60% at days 7 and 14, and by about 25% at day 21.

B16 melanoma = test: Synergistic inhibition of tumor growth, B16 melanoma model; type: in vivo, mouse; conditions: squalamine alone
Protocol: Based on the idea that tumor growth involves both the clonal expansion of a malignant cell along with the development of a supporting vascular supply, a combination of compound 1436 with squalamine was tested to determine whether it would achieve a synergistic effect on solid tumor growth. This concept was evaluated in the B16 melanoma model.
Animals were implanted with B16 melanoma followed by treatment with compound 1436 or 1256 administered in a combined schedule or separately. […] Thus, a combination of these two compounds achieves a therapeutic benefit in tumors dependent on neovascularization that may prevent metastatic spread.

[7] = system: human coronary artery smooth muscle; test: Proliferation of human coronary artery smooth muscle in vitro; type: cell-based; conditions: FIG. 15
Source text: Aminosterols of the invention may also have utility in inhibiting the growth factor mediated proliferation of smooth muscle within the artery. Following coronary angioplasty, reocclusion commonly occurs, secondary to reparative proliferation of the vascular smooth muscle within the wall of the surgically manipulated blood vessel. This process generally takes place over the course of 7-10 days. To evaluate whether an agent could prevent the growth factor mediated proliferation of smooth muscle within the artery, compound 1436 was evaluated in vitro for its effect on the proliferation of human coronary artery smooth muscle. Results for compound 1436 are shown in FIG. 13, and those for squalamine are shown in FIG. 14, with FIG. 15 being a composite logarithmic plot.

[8] = system: bacteria, fungi and protozoa; conditions: cited from earlier work

T1 sequence (P26432 30-832): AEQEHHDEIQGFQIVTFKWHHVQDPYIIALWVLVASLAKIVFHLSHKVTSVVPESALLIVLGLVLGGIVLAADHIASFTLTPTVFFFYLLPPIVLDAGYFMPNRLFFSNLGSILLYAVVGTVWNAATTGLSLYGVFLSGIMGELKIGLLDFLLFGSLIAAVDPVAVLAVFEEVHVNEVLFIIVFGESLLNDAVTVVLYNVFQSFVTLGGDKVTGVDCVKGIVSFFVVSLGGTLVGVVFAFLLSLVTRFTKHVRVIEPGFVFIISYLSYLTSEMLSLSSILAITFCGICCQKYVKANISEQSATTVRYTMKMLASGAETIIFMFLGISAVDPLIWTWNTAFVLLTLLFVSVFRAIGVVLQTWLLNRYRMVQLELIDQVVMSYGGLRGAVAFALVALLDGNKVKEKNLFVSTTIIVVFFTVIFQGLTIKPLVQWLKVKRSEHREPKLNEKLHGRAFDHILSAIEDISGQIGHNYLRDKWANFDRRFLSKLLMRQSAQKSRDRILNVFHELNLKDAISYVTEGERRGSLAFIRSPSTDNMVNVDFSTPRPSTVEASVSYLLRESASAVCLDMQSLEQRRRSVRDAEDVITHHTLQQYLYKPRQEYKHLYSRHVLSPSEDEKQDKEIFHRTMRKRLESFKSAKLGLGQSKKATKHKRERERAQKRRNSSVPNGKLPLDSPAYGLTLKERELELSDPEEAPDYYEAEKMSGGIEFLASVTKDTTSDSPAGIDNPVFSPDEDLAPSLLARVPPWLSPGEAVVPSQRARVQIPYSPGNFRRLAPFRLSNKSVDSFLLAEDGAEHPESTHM

## CC(C)[C@@H](CC[C@@H](C)[C@H]1CC[C@H]2[C@@H]3[C@H](O)C[C@H]4C[C@@H](NCCCNCCCCN)CC[C@]4(C)[C@H]3CC[C@]12C)OS(=O)(=O)O [squalamine]
Rabbit NHE3; 5 μg/ml, cells not acid-preloaded, FIG. 1B
  resting internal pH: the resting pH of these cells was also inhibited
Rabbit NHE3; squalamine 5 μg/ml, FIGS. 1A, 1B
  inhibition of NHE3, effect on Km and Vmax: inhibited NHE3 with respect to proton concentration at both Km and Vmax levels
Rabbit NHE3; words
  inactivation of exchanger compared with amiloride: more profoundly inactivated by squalamine than by amiloride
  specificity NHE3 over NHE1: specificity for NHE3 over NHE1
[1]
  growth of bovine pulmonary endothelial cells: inhibited the growth
[2]
  growth of epithelial line: no effect
[3]
  growth of fibroblast line: no effect
[4]
  effect on cell viability or proliferation at cord-inhibiting concentrations: does not appear to profoundly affect cell viability or proliferation
[5]; 3-day CAM, 0.65 μg
  inhibition of CAM vessel neovascularization: inhibition of CAM vessel neovascularization
[5]; 3-day embryo, 20 and 40 μg (values marked *)
  vascular irritation: Some vascular irritation noted
[5]; 13-day embryo, 5.0 μg applied
  Percentage positive (positive/total): 0/26
[5]; 13-day old chick, ten times 0.65 μg
  inhibition of CAM capillary growth: no inhibitory effect
Vitelline capillaries
  activity on vitelline capillaries: especially active
Vitelline capillaries; 0.001 μg applied
  vascular reactivity: 0
Vitelline capillaries; 0.01 μg applied
  vascular reactivity: +
Vitelline capillaries; 0.1 μg applied
  vascular reactivity: +
Vitelline capillaries; 1 μg applied
  vascular reactivity: +
Vitelline capillaries; 10 μg applied
  vascular reactivity: +
Vitelline capillaries; 3- to 5-day chick embryos
  disruption of vitelline capillaries: found to disrupt vitelline capillaries
Vitelline capillaries; 3-day chick embryo
  lag period before capillary constriction: around 15 minutes
Vitelline capillaries; chick embryo, microscopic observation
  hemolysis: absence of hemolysis
Human melanoma 1205Lu; 10, 20, 40 mg/kg/d, FIG. 5
  suppression of tumor growth: clear suppression of tumor growth in a dose-dependent fashion
Human melanoma 1205Lu; words
  reversibility after cessation of treatment: reversible
B16
  cytostatic activity against B16 in culture: minimal cytostatic activity
[6]
  inhibition of new blood vessel formation: about 25%
B16 melanoma; 5 mg/kg/day, FIG. 12
  impact on tumor volume: no significant impact on tumor volume
B16 melanoma; 15 mg/kg/day
  effect compared with combination: Neither administration of squalamine at 15 mg/kg/day nor compound 1436 alone in a tolerable schedule could achieve this effect
[7]
  suppression of growth in vitro: suppress in vitro the growth of human coronary artery smooth muscle
[8]
  antibiotic spectrum: broad-spectrum antibiotic, killing bacteria, fungi and protozoa
